According to patent US12522594B2, “2-heteroaryl-3-oxo-2,3-dihydropyridazine-4-carboxamides for the treatment of cancer” (Deutsches Krebsforschungszentrum, priority 2017, dated 2026):

Tests used:
Format in all cases: cell-based
[1] = biological target: T1, AHR (Homo sapiens, UniProt P35869); experiment: In vitro assay 1: antagonism in human cell line (transactivation assay, U87 cells prestimulated with kynurenic acid, DRE firefly luciferase reporter); set-up: host or cells: U87 glioblastoma cells, stably transfected with DRE firefly luciferase and renilla reporter constructs; conditions: 150 uM kynurenic acid, 20 hours, read-out: Assay 1: AHR-luc Hum Antagonism IC50
T1 sequence (P35869 11-848): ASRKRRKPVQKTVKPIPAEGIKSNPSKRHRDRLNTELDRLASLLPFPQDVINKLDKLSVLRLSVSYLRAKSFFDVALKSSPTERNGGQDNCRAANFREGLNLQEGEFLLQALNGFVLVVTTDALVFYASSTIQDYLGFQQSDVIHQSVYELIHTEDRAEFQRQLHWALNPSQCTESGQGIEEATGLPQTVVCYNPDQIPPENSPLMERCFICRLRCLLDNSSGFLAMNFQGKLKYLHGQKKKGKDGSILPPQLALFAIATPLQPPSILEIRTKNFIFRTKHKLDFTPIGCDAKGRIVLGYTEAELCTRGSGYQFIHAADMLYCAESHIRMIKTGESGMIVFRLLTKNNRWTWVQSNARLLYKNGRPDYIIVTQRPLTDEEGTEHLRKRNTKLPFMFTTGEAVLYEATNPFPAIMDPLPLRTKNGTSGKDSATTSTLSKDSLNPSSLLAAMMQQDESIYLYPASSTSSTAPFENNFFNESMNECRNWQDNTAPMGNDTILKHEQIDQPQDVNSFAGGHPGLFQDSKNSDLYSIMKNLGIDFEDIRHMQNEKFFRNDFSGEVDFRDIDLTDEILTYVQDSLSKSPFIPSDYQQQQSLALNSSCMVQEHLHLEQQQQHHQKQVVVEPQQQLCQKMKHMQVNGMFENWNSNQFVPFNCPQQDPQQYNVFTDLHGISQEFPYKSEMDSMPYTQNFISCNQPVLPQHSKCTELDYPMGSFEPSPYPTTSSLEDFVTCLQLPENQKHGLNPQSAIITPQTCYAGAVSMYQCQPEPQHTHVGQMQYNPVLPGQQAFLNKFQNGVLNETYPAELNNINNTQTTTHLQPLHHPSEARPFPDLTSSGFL
How it was run: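 U87 glioblastoma cells with endogenous AHR, stably carrying a DRE-driven firefly luciferase reporter and a constitutive renilla reporter. Cells prestimulated with the AHR agonist kynurenic acid before compound addition; data normalized to positive and negative controls.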

[2] = biological target: T1, AHR; experiment: In vitro assay 2: agonism in human cell line (transactivation assay, U87 cells, DRE firefly luciferase reporter); set-up: host or cells: U87 glioblastoma cells, stably transfected with DRE firefly luciferase and renilla reporter constructs; conditions: no kynurenic acid, 20 hours, read-out: Assay 2: AHR-luc Hum Agonism IC50
How it was run: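 U87 glioblastoma cells with endogenous AHR, stably carrying DRE-driven firefly luciferase and constitutive renilla reporters. 300 uM kynurenic acid served as positive activation control; data normalized to positive and negative controls.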

[3] = biological target: T1, AHR; experiment: In vitro assay 3: AHR-regulated CYP1A1 expression in human cell line (U937, qPCR, KA stimulation); conditions: U937 cells, 200 uM KA, 6 hours, CYP1A1 expression by qPCR; read-out: Assay 3: Hum CYP1A1 Antagonism IC50
Protocol: In Vitro Assay 3: AHR-Regulated CYP1A1 Expression in Human Cell Line
To assess the AHR inhibitory activity of the substances described in this application, the ability thereof to antagonise ligand-induced AHR gene regulation in a dose-dependent manner was quantified. For this purpose, quantitative PCR analysis was used to determine expression of the AHR-regulated gene CYP1A1 in a human monocytic U937 cell line upon stimulation with 200 uM KA in the presence and absence of AHR inhibitor. […] CYP1A1 expression was induced with 200 uM KA (positive control) in the presence or absence of the substances for 6 hours. Human U937 cells were typically incubated with eight different concentrations of the substances (1 nM, 3 nM, 10 nM, 30 nM, 100 nM, 300 nM, 1 uM and 3 uM) and analyzed in duplicate on the same microtitre plate. […] Unstimulated cells were used as the negative control. Taqman probes for human CYP1A1 (Hs01054797_g1) and human HPRT (Hs02800695_m1) were used to analyze fold expression of CYP1A1 of HPRT. Quantitation was performed on a Taqman SDS7900HT.

Compound	IC50 [1]	IC50 [2]	IC50 [3]
O=C(N[C@H]1CCC[C@@H]1O)c1cc(-c2ccc(Cl)cc2)nn(-c2cccnc2)c1=O [Example 130, 6-(4-Chlorophenyl)-N-[(1S,2S)-2-hydroxycyclopentyl]-3-oxo-2-(pyridin-3-yl)-2,3-dihydropyridazine-4-carboxamide]	6.54 nM	> 20000 nM	6.42 nM
Cc1ccc(-c2cc(C(=O)N[C@@H](C)CO)c(=O)n(-c3cccnc3)n2)cc1 [Example 152, N-[(2S)-1-Hydroxypropan-2-yl]-6-(4-methylphenyl)-3-oxo-2-(pyridin-3-yl)-2,3-dihydropyridazine-4-carboxamide]	24.1 nM	> 20000 nM	21.3 nM
O=C(N[C@@H]1CCC[C@H]1O)c1cc(-c2ccc(C(F)(F)F)cc2)nn(-c2cccnc2)c1=O [Example 104, N-[(1R,2R)-2-Hydroxycyclopentyl]-3-oxo-2-(pyridin-3-yl)-6-[4-(trifluoromethyl)phenyl]-2,3-dihydropyridazine-4-carboxamide]	20.2 nM	> 20000 nM	14.8 nM
C[C@@H](CO)NC(=O)c1cc(-c2ccc(Cl)cc2)nn(-c2cncc(F)c2)c1=O [Example 80, 6-(4-Chlorophenyl)-2-(5-fluoropyridin-3-yl)-N-[(2S)-1-hydroxypropan-2-yl]-3-oxo-2,3-dihydropyridazine-4-carboxamide]	27.1 nM	> 20000 nM	32.6 nM
C[C@@H](CO)NC(=O)c1cc(-c2ccc(N(C)C)cc2)nn(-c2cnn(C)c2)c1=O [Example 311, 6-[4-(Dimethylamino)phenyl]-N-[(2S)-1-hydroxypropan-2-yl]-2-(1-methyl-1H-pyrazol-4-yl)-3-oxo-2,3-dihydropyridazine-4-carboxamide]	1.82 nM	> 20000 nM	1.03 nM
O=C(N[C@@H]1CC[C@@H]1O)c1cc(-c2ccc(C(F)(F)F)cc2)nn(-c2cccnc2)c1=O (single isomer, unassigned) [Example 217, (+)-N-cis-2- Hydroxycyclobutyl-3-oxo-2-(pyridin-3-yl)-6-[4-(trifluoromethyl)phenyl]-2,3-dihydropyridazine-4-carboxamide]	2.44 nM	> 20000 nM	7.01 nM
O=C(NC(CO)C(F)(F)F)c1cc(-c2ccc(Cl)cc2)nn(-c2cccnc2)c1=O (racemic) [Example 76, 6-(4-Chlorophenyl)-3-oxo-2-(pyridin-3-yl)-N-[(2RS)-1,1,1-trifluoro-3-hydroxypropan-2-yl]-2,3-dihydropyridazine-4-carboxamide]	11.9 nM	> 20000 nM	13.8 nM
Cc1ccc(-c2cc(C(=O)NC(CO)C(C)C)c(=O)n(-c3cnn(C)c3)n2)cc1 (single isomer, unassigned) [Example 2, N-(1-Hydroxy-3-methylbutan-2-yl)-6-(4-methylphenyl)-2-(1-methyl-1H-pyrazol-4-yl)-3-oxo-2,3-dihydropyridazine-4-carboxamide]	2.57 nM	> 20000 nM	3.03 nM
O=C(N[C@H](CO)CF)c1cc(-c2ccc(Cl)cc2)nn(-c2cccnc2)c1=O [Example 93, (+)-6-(4-Chlorophenyl)-N-[(2R)-1-fluoro-3-hydroxypropan-2-yl]-3-oxo-2-(pyridin-3-yl)-2,3-dihydropyridazine-4-carboxamide]	24.8 nM	> 20000 nM	4.32 nM
Cn1cc(-n2nc(-c3ccc(Cl)cc3)cc(C(=O)N[C@H]3CCC[C@@H]3O)c2=O)cn1 [Example 49, 6-(4-Chlorophenyl)-N-[(1S,2S)-2-hydroxycyclopentyl]-2-(1-methyl-1H-pyrazol-4-yl)-3-oxo-2,3-dihydropyridazine-4-carboxamide]	6.5 nM	> 20000 nM	7.55 nM
Cn1cc(-n2nc(-c3ccc(Cl)cc3)cc(C(=O)NCC(O)C(F)(F)F)c2=O)cn1 (single isomer, unassigned; (+)) [Example 20, (+)-6-(4-Chlorophenyl)-2-(1-methyl-1H-pyrazol-4-yl)-3-oxo-N-(3,3,3-trifluoro-2-hydroxypropyl)-2,3-dihydropyridazine-4-carboxamide]	26.7 nM	> 20000 nM	63.1 nM
O=C(N[C@H](CO)C1CC1)c1cc(-c2ccc(C(F)(F)F)cc2)nn(-c2cccnc2)c1=O [Example 94, N-[(1S)-1-Cyclopropyl-2-hydroxyethyl]-3-oxo-2-(pyridin-3-yl)-6-[4-(trifluoromethyl)phenyl]-2,3-dihydropyridazine-4-carboxamide]	8.44 nM	> 20000 nM	16.5 nM

Now from value to compound:

IC50 [1]	IC50 [2]	IC50 [3]	Compound
1.88 nM	> 20000 nM	1.69 nM	O=C(N[C@H]1CCC[C@@H]1O)c1cc(-c2ccc(C(F)(F)F)cc2)nn(-c2cccnc2)c1=O [Example 102, N-[(1S,2S)-2-Hydroxycyclopentyl]-3-oxo-2-(pyridin-3-yl)-6-[4-(trifluoromethyl)phenyl]-2,3-dihydropyridazine-4-carboxamide]
56.7 nM	> 20000 nM	31.1 nM	CC(C)(O)CNC(=O)c1cc(-c2ccc(C(F)F)cc2)nn(-c2cccnc2)c1=O [Example 322, 6-[4-(Difluoromethyl)phenyl]-N-(2-hydroxy-2-methylpropyl)-3-oxo-2-(pyridin-3-yl)-2,3-dihydropyridazine-4-carboxamide]
5.99 nM	> 20000 nM	11.6 nM	Cn1cc(-n2nc(-c3ccc(Cl)cc3)cc(C(=O)N[C@@H](C#N)CO)c2=O)cn1 [Example 227, 6-(4-Chlorophenyl)-N-[(1S)-1-cyano-2-hydroxyethyl]-2-(1-methyl-1H-pyrazol-4-yl)-3-oxo-2,3-dihydropyridazine-4-carboxamide]
1.48 nM	> 20000 nM	1.36 nM	Cn1cc(-n2nc(-c3ccc(OC(F)(F)F)cc3)cc(C(=O)N[C@H]3CCCC[C@H]3O)c2=O)cn1 [Example 46, N-[(1S,2R)-2-Hydroxycyclohexyl]-2-(1-methyl-1H-pyrazol-4-yl)-3-oxo-6-[4-(trifluoromethoxy)phenyl]-2,3-dihydropyridazine-4-carboxamide]
2.78 nM	> 20000 nM	4.01 nM	Cn1cc(-n2nc(-c3ccc(C(F)(F)F)cc3)cc(C(=O)N[C@@H]3COC[C@@H]3O)c2=O)cn1 (single isomer, unassigned) [Example 218, (+)-N-cis-4- Hydroxytetrahyd rofuran-3-yl-2-(1-methyl-1H-pyrazol-4-yl)-3-oxo-6-[4-(trifluoromethyl)phenyl]-2,3-dihydropyridazine-4-carboxamide]
29.4 nM	> 20000 nM	14.4 nM	C[C@H](NC(=O)c1cc(-c2ccc(C(F)(F)F)cc2)nn(-c2cn[nH]c2)c1=O)C(C)(C)O [Example 260, N-[(2S)-3-Hydroxy-3-methylbutan-2-yl]-3-oxo-2-(1H-pyrazol-4-yl)-6-[4-(trifluoromethyl)phenyl]-2,3-dihydropyridazine-4-carboxamide]
45.1 nM	> 20000 nM	57 nM	C[C@H](CO)NC(=O)c1cc(-c2ccc(C(F)(F)F)cc2)nn(-c2cccnc2)c1=O [Example 118, N-[(2R)-1-Hydroxypropan-2-yl]-3-oxo-2-(pyridin-3-yl)-6-[4-(trifluoromethyl)phenyl]-2,3-dihydropyridazine-4-carboxamide]
